ChEMBL document CHEMBL5661979, “Pharmacological inhibition of BMK1 suppresses tumor growth through promyelocytic leukemia protein” (Cancer Cell, 2010)

Tests used:
Assay type in all cases: subcellular
[1] = target: Glycogen synthase kinase-3 beta (Homo sapiens, UniProt P49841); assay: Inhibition of GSK3B isoform 2 in human HeLa cells lysate pre incubated for 15 mins followed by ATP acyl phosphate probe addition and measured after 10 mins by LC-MS/MS analysis
[2] = target: T1, Serine/threonine-protein kinase Nek9 (Homo sapiens) (UniProt Q8TD19); assay: Inhibition of NEK9 in human HeLa cells lysate at 2 uM pre incubated for 15 mins followed by ATP acyl phosphate probe addition and measured after 10 mins by LC-MS/MS analysis relative to control; conditions: time 25.0 min
T1 sequence (whole entry): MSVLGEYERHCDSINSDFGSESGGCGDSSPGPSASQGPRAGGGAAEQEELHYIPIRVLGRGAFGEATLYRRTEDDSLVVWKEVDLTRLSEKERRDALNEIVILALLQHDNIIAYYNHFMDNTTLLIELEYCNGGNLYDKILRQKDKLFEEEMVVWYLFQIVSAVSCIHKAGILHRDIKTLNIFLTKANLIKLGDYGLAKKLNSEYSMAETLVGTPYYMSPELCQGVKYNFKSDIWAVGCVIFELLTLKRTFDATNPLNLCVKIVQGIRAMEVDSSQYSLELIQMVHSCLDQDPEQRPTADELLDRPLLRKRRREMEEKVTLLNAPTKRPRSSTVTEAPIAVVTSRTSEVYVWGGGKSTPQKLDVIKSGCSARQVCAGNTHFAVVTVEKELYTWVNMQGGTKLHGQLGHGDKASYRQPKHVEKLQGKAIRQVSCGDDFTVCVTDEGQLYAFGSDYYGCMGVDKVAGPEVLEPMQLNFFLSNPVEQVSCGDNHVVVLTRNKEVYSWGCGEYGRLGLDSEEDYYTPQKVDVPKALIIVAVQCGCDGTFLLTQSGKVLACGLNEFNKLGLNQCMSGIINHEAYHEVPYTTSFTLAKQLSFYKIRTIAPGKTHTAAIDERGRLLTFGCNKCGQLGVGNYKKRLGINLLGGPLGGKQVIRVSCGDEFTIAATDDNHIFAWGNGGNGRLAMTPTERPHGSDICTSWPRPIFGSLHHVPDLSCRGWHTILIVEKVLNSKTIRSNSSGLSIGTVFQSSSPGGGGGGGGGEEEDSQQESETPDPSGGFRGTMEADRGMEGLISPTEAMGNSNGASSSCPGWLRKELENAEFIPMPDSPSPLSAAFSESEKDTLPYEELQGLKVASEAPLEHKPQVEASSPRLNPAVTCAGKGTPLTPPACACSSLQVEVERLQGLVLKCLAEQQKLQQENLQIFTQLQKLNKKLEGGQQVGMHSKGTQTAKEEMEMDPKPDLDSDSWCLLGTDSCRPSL

[3] = target: Interleukin-1 receptor-associated kinase 1 (Homo sapiens, UniProt P51617); assay: Inhibition of IRAK1 in human HeLa cells lysate at 2 uM pre incubated for 15 mins followed by ATP acyl phosphate probe addition and measured after 10 mins by LC-MS/MS analysis relative to control; conditions: time 25.0 min
Chain of Interleukin-1 receptor-associated kinase 1 (P51617 whole entry, looked up): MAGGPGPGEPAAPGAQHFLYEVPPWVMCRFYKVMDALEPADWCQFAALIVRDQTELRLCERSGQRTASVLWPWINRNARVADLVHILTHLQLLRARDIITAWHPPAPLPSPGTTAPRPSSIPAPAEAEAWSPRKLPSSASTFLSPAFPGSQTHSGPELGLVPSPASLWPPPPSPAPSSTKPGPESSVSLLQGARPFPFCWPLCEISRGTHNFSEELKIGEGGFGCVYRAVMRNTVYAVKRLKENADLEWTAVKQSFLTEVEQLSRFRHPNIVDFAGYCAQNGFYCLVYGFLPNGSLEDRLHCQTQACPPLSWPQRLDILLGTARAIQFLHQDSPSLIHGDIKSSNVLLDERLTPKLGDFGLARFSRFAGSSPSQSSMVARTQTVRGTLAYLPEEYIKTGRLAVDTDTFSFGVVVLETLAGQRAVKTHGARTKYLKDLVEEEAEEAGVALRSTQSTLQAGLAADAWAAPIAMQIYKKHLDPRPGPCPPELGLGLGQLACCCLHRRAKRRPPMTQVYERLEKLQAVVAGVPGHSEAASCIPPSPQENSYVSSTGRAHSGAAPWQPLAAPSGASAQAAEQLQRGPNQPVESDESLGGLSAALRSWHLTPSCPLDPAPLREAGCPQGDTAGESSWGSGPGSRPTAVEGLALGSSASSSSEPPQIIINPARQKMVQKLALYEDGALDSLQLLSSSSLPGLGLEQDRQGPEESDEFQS

[4] = target: T1, Serine/threonine-protein kinase Nek9 (Homo sapiens); assay: Inhibition of NEK9 in human HeLa cells lysate at 2 uM pre incubated for 15 mins followed by ADP acyl phosphate probe addition and measured after 10 mins by LC-MS/MS analysis relative to control; conditions: time 25.0 min
[5] = target: Tyrosine-protein kinase JAK1 (Homo sapiens, UniProt P23458); assay: Inhibition of JAK1 domain 2 in human HeLa cells lysate at 2 uM pre incubated for 15 mins followed by ATP acyl phosphate probe addition and measured after 10 mins by LC-MS/MS analysis relative to control; conditions: time 25.0 min
Chain of Tyrosine-protein kinase JAK1 (P23458 whole entry, the tested form may be a part): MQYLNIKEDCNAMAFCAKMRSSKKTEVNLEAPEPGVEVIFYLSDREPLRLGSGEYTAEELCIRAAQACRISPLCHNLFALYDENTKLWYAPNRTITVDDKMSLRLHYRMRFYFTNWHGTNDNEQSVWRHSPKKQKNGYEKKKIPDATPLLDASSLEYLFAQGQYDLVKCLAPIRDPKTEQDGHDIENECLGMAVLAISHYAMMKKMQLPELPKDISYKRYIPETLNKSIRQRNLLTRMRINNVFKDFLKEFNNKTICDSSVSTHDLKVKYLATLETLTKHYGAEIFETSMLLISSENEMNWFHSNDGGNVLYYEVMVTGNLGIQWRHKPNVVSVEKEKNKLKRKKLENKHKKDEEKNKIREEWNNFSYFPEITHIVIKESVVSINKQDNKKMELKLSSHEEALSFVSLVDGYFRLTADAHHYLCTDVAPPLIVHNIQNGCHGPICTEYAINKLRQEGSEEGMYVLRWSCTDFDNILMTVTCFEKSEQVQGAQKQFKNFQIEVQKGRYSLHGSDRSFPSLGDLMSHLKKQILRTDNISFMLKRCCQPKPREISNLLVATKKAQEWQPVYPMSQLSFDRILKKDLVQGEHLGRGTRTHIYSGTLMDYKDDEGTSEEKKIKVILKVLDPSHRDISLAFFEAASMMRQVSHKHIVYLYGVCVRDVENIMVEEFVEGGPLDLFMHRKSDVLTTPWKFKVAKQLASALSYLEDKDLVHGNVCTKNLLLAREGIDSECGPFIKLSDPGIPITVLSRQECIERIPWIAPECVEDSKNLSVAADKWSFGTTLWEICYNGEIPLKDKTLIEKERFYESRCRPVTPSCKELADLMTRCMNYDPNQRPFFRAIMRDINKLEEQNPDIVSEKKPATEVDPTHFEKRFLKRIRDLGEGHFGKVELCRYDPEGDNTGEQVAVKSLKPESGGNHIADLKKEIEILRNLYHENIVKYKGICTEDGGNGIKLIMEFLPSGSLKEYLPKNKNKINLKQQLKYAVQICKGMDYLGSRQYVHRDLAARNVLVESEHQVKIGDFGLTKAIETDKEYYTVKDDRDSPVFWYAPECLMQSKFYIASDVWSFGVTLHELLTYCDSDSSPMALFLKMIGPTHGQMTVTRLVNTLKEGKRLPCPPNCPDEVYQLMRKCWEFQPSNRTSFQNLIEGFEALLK

[6] = target: T2, SRSF protein kinase 1 (Homo sapiens, UniProt Q96SB4); assay: Inhibition of SRPK1 in human HeLa cells lysate at 50 uM pre incubated for 15 mins followed by ATP acyl phosphate probe addition and measured after 10 mins by LC-MS/MS analysis relative to control; conditions: time 25.0 min
T2 sequence (Q96SB4 whole entry): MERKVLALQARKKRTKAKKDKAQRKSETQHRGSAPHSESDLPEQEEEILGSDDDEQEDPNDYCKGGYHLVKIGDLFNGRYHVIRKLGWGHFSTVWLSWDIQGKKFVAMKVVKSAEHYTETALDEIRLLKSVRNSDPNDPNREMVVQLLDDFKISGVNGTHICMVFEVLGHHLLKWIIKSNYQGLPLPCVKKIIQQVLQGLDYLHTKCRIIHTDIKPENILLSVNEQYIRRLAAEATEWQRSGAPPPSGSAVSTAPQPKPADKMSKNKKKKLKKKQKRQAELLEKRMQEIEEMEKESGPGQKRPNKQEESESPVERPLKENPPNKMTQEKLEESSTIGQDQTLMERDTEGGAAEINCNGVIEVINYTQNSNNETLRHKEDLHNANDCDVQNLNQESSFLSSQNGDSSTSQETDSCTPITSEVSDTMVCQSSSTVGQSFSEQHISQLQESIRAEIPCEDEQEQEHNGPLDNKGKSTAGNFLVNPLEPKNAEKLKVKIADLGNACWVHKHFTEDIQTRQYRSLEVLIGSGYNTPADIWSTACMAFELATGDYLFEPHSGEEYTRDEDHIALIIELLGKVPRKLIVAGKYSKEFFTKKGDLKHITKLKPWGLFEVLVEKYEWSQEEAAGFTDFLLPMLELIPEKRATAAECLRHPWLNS

[7] = target: T3, Interleukin-1 receptor-associated kinase 4 (Homo sapiens) (UniProt Q9NWZ3); assay: Inhibition of IRAK4 in human HeLa cells lysate at 50 uM pre incubated for 15 mins followed by ATP acyl phosphate probe addition and measured after 10 mins by LC-MS/MS analysis relative to control; conditions: time 25.0 min
T3 sequence (whole entry): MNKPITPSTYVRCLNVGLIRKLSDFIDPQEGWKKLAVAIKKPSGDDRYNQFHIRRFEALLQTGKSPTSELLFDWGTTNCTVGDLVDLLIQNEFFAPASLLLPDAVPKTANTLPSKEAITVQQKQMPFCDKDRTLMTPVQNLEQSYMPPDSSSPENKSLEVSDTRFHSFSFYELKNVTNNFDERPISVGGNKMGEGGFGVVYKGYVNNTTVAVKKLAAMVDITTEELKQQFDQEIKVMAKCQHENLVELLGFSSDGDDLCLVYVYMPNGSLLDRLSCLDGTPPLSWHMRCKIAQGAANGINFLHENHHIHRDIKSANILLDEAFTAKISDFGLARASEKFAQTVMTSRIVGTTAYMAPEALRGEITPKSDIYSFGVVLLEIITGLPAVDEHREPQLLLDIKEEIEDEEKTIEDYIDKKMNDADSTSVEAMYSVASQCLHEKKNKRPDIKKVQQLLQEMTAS

[8] = target: MAP/microtubule affinity-regulating kinase 3 (Homo sapiens, UniProt P27448); assay: Inhibition of MARK3 in human HeLa cells lysate pre incubated for 15 mins followed by ATP acyl phosphate probe addition and measured after 10 mins by LC-MS/MS analysis
Chain of MAP/microtubule affinity-regulating kinase 3 (P27448 whole entry): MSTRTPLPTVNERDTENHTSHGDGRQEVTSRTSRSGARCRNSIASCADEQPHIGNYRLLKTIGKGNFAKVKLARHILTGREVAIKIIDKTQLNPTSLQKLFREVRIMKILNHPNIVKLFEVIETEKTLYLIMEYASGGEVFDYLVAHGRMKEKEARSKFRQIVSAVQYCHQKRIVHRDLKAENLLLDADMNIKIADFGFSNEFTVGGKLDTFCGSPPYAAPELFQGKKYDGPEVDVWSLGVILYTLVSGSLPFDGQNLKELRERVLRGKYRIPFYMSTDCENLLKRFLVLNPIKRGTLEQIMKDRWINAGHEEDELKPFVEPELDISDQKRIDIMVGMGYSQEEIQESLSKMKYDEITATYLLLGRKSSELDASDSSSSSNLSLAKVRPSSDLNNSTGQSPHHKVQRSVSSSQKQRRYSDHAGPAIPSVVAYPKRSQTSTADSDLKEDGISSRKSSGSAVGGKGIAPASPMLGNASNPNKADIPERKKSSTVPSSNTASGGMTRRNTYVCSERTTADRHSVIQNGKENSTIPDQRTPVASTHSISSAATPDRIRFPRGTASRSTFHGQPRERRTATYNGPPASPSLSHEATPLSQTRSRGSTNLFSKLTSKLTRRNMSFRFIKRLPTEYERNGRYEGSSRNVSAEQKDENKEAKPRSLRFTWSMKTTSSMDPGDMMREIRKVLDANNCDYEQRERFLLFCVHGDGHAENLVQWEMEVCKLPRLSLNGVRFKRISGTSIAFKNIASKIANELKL

[9] = target: Mitogen-activated protein kinase kinase kinase 11 (Homo sapiens, UniProt Q16584); assay: Inhibition of MLK3 in human HeLa cells lysate at 50 uM pre incubated for 15 mins followed by ATP acyl phosphate probe addition and measured after 10 mins by LC-MS/MS analysis relative to control; conditions: time 25.0 min
Chain of Mitogen-activated protein kinase kinase kinase 11 (Q16584 whole entry, looked up): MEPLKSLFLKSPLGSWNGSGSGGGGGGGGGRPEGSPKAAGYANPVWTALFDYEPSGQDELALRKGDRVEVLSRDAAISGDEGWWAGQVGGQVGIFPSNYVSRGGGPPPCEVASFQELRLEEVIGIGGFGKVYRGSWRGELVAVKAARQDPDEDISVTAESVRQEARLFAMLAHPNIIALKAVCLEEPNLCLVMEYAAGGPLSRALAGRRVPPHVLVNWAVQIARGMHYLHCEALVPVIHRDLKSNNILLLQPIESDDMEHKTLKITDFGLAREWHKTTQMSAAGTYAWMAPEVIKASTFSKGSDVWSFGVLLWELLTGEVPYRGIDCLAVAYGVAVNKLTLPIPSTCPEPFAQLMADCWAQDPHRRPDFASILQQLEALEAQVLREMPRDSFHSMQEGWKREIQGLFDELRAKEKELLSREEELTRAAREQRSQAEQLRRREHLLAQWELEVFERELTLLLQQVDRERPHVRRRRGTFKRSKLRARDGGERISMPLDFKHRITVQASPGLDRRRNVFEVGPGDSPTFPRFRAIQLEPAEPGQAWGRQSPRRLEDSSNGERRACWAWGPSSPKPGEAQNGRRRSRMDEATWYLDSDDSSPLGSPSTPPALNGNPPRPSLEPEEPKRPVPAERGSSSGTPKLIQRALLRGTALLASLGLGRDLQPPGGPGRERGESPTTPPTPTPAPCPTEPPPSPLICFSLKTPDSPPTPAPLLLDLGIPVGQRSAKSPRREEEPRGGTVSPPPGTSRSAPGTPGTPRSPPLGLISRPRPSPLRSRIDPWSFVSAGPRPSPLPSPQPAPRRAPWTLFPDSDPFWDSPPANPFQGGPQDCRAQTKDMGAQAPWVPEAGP

[10] = target: T2, SRSF protein kinase 1; assay: Inhibition of SRPK1 in human HeLa cells lysate at 2 uM pre incubated for 15 mins followed by ATP acyl phosphate probe addition and measured after 10 mins by LC-MS/MS analysis relative to control; conditions: time 25.0 min

Chain of Glycogen synthase kinase-3 beta (P49841 whole entry, canonical isoform): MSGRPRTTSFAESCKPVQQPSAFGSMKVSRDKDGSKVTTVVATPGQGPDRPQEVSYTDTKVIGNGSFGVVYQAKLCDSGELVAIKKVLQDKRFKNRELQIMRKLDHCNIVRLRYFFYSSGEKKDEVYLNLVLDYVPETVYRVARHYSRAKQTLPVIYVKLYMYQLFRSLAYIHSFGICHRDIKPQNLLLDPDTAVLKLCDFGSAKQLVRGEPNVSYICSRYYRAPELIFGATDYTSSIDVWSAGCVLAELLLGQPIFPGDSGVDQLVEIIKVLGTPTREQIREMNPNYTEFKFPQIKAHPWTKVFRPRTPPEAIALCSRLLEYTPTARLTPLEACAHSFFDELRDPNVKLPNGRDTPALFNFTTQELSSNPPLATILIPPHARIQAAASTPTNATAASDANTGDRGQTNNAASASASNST

With CCOc1cc(N2CCC(O)CC2)ccc1Nc1ncc2c(n1)N(C)c1ccccc1C(=O)N2C the IC50 [1] was greater than 50 µM, the inhibition [2] was 3% and the inhibition [3] was 2.6%. The inhibition [4] was 0.3%, the inhibition [5] was 9.7% and the inhibition [6] was -7.5%. It also gave an inhibition [7] of 15.6%, an IC50 [8] greater than 50 µM and an inhibition [9] of -7.8%. It also gave an inhibition [10] of -2%.
